Tested on: A549 cells
Assay: translational efficiency of mRNAs capped with the analogs in A549 cells (Gaussia luciferase)
Type: cell-based
Conditions: mRNA capped with the analog; Gaussia luciferase activity in A549 cells 72 h post-transfection; normalized to m^7GpppG RNA
Description: Finally, we tested the properties of arylmethyl cap analogs as reagents for co-transcriptional mRNA capping. […] Here, we sought to evaluate the translational properties of mRNAs capped with N7-arylmethyl analogs in cultured cells. To that end, the translation properties of transcripts capped with selected analogs were assessed in A549 cells. In vitro transcribed mRNAs encoding Gaussia luciferase, capped with compounds 1a–1k, 1m–1n, and 1p–1r or with reference analogues m^7GpppG and ARCA (m^7GmpppG), were purified via RP HPLC, transfected into A549 cells, and the protein activity (luminescence) was measured using a reporter assay at 72 h post-transfection. The total amount of protein produced over 72 h from each capped RNA was normalized to m^7GpppG RNA (Figure 6 and Figure S4). […] Namely, replacing the N7-methyl group with a benzyl moiety (1a) increased protein production over fivefold in A549 cells compared to m^7GpppG-capped mRNA (Figure 6).
The influence of N7-arylmethylated dinucleotide 5′ cap analogues on the translational properties of HPLC-purified IVT mRNA is shown in Figure S4, Measurements are total protein produced over 72 h by A549 cells transfected with capped mRNAs. Each plot in Figure S4 represents a single experiment consisting of three independent transfections of the cells at the same passage. Bars show mean value normalized to […] ± SD. In the main manuscript, all nine data points from three different cell passages were combined to present cumulative protein expression.

m^7GmpppG [reference compound]
Rel. Protein Expression: 8.6 ± 1.0

Reference: paper PMC8623273, “Novel N7-Arylmethyl Substituted Dinucleotide mRNA 5′ cap Analogs: Synthesis and Evaluation as Modulators of Translation” (Pharmaceutics, 2021)
